The numbers were not newly measured in patent publication US20210401846A1, “MEDICAMENT, COMPOUND, COMPOSITION AND METHOD FOR TREATING HERPES” (priority 2020, published 2021), which cites them from elsewhere.

The target in one data set is T1, aldehyde oxidase (Homo sapiens, UniProt Q06278).
T1 construct: host or cells: endogenous enzyme in vivo
T1 sequence (Q06278 1-1338): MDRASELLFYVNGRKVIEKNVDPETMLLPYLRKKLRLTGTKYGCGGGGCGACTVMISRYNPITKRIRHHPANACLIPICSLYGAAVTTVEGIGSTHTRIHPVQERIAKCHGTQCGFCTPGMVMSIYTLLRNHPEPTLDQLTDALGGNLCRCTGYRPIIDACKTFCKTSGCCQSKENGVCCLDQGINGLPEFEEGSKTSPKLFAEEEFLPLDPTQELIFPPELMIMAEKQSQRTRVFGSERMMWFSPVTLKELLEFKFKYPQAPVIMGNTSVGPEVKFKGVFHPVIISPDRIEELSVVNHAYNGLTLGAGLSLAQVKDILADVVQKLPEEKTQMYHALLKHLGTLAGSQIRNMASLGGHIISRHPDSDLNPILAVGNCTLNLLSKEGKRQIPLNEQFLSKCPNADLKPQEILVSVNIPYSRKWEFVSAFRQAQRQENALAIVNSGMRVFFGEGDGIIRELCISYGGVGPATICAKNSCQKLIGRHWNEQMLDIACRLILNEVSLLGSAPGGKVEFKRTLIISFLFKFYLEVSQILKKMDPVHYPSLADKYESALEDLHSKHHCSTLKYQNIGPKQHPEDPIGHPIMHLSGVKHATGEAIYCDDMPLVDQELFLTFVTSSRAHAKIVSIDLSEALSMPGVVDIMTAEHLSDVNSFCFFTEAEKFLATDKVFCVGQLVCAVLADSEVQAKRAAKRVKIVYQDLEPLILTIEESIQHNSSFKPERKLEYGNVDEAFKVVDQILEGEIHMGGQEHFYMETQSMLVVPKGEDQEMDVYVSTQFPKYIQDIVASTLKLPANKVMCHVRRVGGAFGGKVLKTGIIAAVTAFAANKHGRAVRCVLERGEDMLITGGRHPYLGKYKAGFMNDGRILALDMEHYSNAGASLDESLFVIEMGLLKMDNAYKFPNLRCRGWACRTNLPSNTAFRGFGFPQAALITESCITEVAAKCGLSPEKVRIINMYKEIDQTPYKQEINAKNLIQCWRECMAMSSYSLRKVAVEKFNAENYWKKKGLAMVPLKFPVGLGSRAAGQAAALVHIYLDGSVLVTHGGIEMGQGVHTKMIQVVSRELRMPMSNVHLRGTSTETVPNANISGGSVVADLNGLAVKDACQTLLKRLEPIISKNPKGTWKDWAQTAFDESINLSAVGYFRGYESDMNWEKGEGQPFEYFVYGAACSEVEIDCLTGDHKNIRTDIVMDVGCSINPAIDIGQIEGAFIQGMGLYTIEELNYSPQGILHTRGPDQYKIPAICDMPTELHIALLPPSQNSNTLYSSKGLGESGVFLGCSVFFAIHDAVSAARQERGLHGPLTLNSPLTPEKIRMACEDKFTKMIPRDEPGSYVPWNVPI
Particulars: in vitro inhibitors of aldehyde oxidase.

Test in data set [1]: not given
The source holds these as a separate data set.

Test in data set [2]: not given
The source holds these as a separate data set.

For data set [3] the following is noted: for half-life: 17 patients with herpes zoster.
For data set [4] the following is noted: during therapy.
The subject of the next data set is cytochrome P450. The conditions noted are these: human liver microsomes. (Microsomes from liver hold many membrane-bound enzymes, among them those of drug oxidation.)
Test in data set [5]: not given
The source holds these as a separate data set.

[6] abbreviates: after single oral 500 mg radiolabeled famciclovir.
Setting [7] is: oral single dose 500 mg famciclovir, 7 patients with herpes zoster.
The mark [8] stands for this setting: single oral 500 mg radiolabeled famciclovir, 3 healthy male volunteers.
Where [9] appears, read: oral administration of radiolabeled valacyclovir.

Like-named read-outs stand apart in the source and are kept apart here.

In the case of `CN/C(=N/CCSCc1nc[nH]c1C)NC#N` [Cimetidine], on aldehyde oxidase, the “effects on the formation of penciclovir in vivo” value is given as “did not show relevant effects”.
By half-life is commonly meant how long it takes for the measured level to halve. What is called Cmax is the maximum level reached in the sampled fluid or tissue. Take `Nc1nc2c(ncn2CCC(CO)CO)c(=O)[nH]1` [penciclovir]: the Cmax decrease entry (capsule formulation of famciclovir administered with food (approx. 910 Kcal, 26% fat)) was “approximately 50%”. Further, where the note is “famciclovir 2 hours after a meal vs 2 hours before a meal”, the “decrease in Cmax” value is listed as 18%. For the same compound, the “dose excreted in the first 6 hours” value in data set [1] (5 mg/kg radiolabeled penciclovir, 1-hour infusion) was 83%. Further, in data set [1] (5 mg/kg radiolabeled penciclovir, 1-hour infusion, 3 healthy male volunteers), the “administered radioactivity recovered in urine over 24 hours” value is on record as “Approximately 94%”. The accumulation of penciclovir entry in data set [1] (500 mg famciclovir three times daily for 7 days) is recorded as “no accumulation”. Further, the “share of the radioactivity excreted in the urine” value (shortened to “share … in the urine”) in data set [1] (after 5 mg/kg radiolabeled penciclovir infusion) is on record as 91%. In addition, in data set [1] (setting [6]), the “share … in the urine” value is given as 82%. Also, the “Penciclovir concentrations vs dose” value in data set [1] (famciclovir 125 mg to 1000 mg single dose) was “increased in proportion to dose”. Besides, the “renal clearance as share of total plasma clearance” value in data set [1] (intravenous penciclovir) is recorded as 74.5±8.8%. Besides, the blood/plasma ratio result in data set [2] was “approximately 1”. The “bound to plasma proteins” value in data set [2] (concentration range 0.1 to 20 mcg/mL) is on record as less than 20%. The half-life in data set [3] (repeated doses) was 2.7 ± 1.0 h. Besides, the half-life in data set [3] (single dose) is 2.8 ± 1.0 h. For the same compound, the “AUC of penciclovir greater in patients with herpes zoster as compared to healthy volunteers” value in data set [3] (human, in vivo) is listed as “approximately 35%”. For the same compound, in data set [3] (setting [7]), the “AUC (mean±SD)” value is 12100 ± 1700 ng·h/mL, the peak concentration (Cmax) was 4000 ± 700 ng/mL and the tmax was 0.7 ± 0.2 h.
As to `CC(=O)OCC(CCn1cnc2cnc(N)nc21)COC(C)=O` [Famciclovir, famciclovir], in data set [4], the “clinically apparent liver injury” value is given as “has not been associated with instances of clinically apparent liver injury” and the “serum ALT elevations” value is “low rate of mild-to-moderate serum ALT elevations”. The “famciclovir detected in plasma or urine” value in data set [1] (oral administration) was “Little or no”. Moreover, the “radiolabeled dose collected in urine in the first 6 hours” value in data set [1] (single oral 500 mg radiolabeled famciclovir) is listed as “Approximately 60%”. Besides, in data set [1] (setting [8]), the “administered radioactivity recovered in feces over 72 hours” value is given as 27% and the “administered radioactivity recovered in urine over 72 hours” value is recorded as 73%. Also, in the data set with cytochrome P450, the “role of cytochrome P450 in famciclovir metabolism” value is on record as “does not play an important role”.
As for `CC(CN1c2ccccc2Sc2ccccc21)N(C)C` (centres unmarked) [promethazine], the “effects on the formation of penciclovir in vivo” value at aldehyde oxidase is listed as “did not show relevant effects”.
For `CC(C)[C@H](N)C(=O)OCCOCn1cnc2c(=O)[nH]c(N)nc21` [Valacyclovir], the “clinically apparent liver injury” value in data set [4] is “rare instances mild, clinically apparent liver injury”. For the same compound, the Half-life elimination in data set [5] (normal renal function, adults) was approximately 0.5 h. The Bioavailability in data set [5] (once converted to acyclovir) is given as approximately 55%. In data set [5] (setting [9]), the “label eliminated in the feces (nonabsorbed drug)” value is recorded as 46% and the “radiolabel eliminated in the urine” value is 47%. Moreover, the Absorption result in data set [5] (valacyclovir) is given as “Rapid”.
On to `Nc1ncc2ncn(CCC(CO)CO)c2n1` [6-deoxy penciclovir], for which the “share … in the urine” value in data set [1] (setting [6]) is 7%. Also, the “inactive metabolite, % of the dose in the urine” value in data set [1] (oral administration of famciclovir) is recorded as 5%.
On to `Nc1nc2c(ncn2COCCO)c(=O)[nH]1` [Acyclovir], for which the “Excretion: urine, primarily as acyclovir” value in data set [5] (in vivo) was 89%.
